Assay results taken from ChEMBL document CHEMBL5335828, “Sacculatane Diterpenoids from the Liverwort Plagiochila nitens Collected in China” (J Nat Prod, 2024).
In brackets after ≈: the same amount, converted by molar mass.

System: Candida albicans
Experiment: Antifungal activity against Candida albicans DSY654 harboring CDR1-CDR2 double mutant assessed as inhibition of fungal growth incubated for 24 hrs by alamar blue assay
Type: functional
Settings: not given

Which MIC does the source give for `COC(=O)C1=CO[C@H]2OC(=O)[C@H]3[C@H]2[C@H]1[C@@H]1[C@H](C[C@H]3OC(C)=O)C1(C)C` here?
The MIC was 16 µg/mL (≈ 45.7 µM).

System: not listed separately
Experiment: Cytotoxicity against mouse Hepa1c1c7 cells incubated for 24 hrs by MTT assay
Type: functional, cell-based
Settings: Hepa-1c1c7, 24 h

With `C=C1CC[C@H]2[C@](C)(CC[C@H](OC(C)=O)C(C)(C)O)[C@@H](OC(C)=O)CC[C@]2(CO)[C@H]1CO` as the compound, how does the IC50 read?
The IC50 was > 50 µM.

Which IC50 does the source give for `C=C1CC[C@H]2[C@](C)(CC[C@H](O)C(C)(C)O)CCC[C@]2(COC(C)=O)[C@H]1CO` here?
Its IC50 is > 50 µM.

Which IC50 does the source give for `C=C1CC[C@H]2[C@](C)(CC[C@H](O)C(C)(C)O)CCC[C@]2(CO)[C@H]1CO` here?
Its IC50 is > 50 µM.

Which IC50 does the source give for `COC(=O)C1=CO[C@H]2OC(=O)[C@H]3[C@H]2[C@H]1[C@@H]1[C@H](C[C@H]3OC(C)=O)C1(C)C` here?
Its IC50 is > 50 µM.

For `C=C1CC[C@H]2[C@](C)(CC[C@H](O)C(C)(C)O)[C@@H](OC(C)=O)CC[C@]2(CO)[C@H]1CO`, which IC50 is on record?
The IC50 was > 50 µM.

For `C=C1C[C@H](O)[C@@H]2C3(CCC[C@@]2(C)CCC=C(C)C)[C@H](O)OC[C@@H]13` (some centres undefined), which IC50 is on record?
Its IC50 is > 50 µM.

With `CC(=O)O[C@H]1CC[C@@]23CO[C@](C)(CC[C@H]2[C@]1(C)CC[C@H](O)C(C)(C)O)[C@@H]3CO` as the compound, how does the IC50 read?
The IC50 was > 50 µM.

With `C=C1CC[C@H]2[C@](C)(CC[C@H](OC(C)=O)C(C)(C)O)CCC[C@]2(CO)[C@H]1CO` as the compound, how does the IC50 read?
The IC50 was > 50 µM.
